Patent US5981489A, “Non-aqueous protic peptide formulations” (Alza Corporation, priority 1997, dated 1999)

Columns and labels:
Format in all cases: physicochemical
[1] = Gelation of non-aqueous protic solvent formulations on adding polar aprotic solvent
Source text: Thus, these solvents have an anti-gellant effect.

[2] = Stability of goserelin formulations, one month at 37° C., RP-HPLC; conditions: for % CONCENTRATION: method called unreliable
Description: (§1) Stability samples were analyzed using RP-HPLC. The area under the curve for the leuprolide peak divided by the sum of the areas under the curve of all peaks gave % purity. [It should be noted that the data for % concentration presented with the % purity data (Examples 6, 8, 9 and 10) are inconclusive. The analysis methods used to determine % concentration in these experiments were unreliable.]
Formulations of 40-45% (w/w) goserelin in either PEG 600 or PG/acetate buffer (30:70) were prepared as described above and placed in polymeric containers. The containers were stored at 37° C. for one month in an incubator. The samples were analyzed using RP-HPLC to determine the chemical stability of the aged formulations.

[3] = Stability of nafarelin formulations, one month at 37° C., RP-HPLC
Description: as §1
Formulations of 15% (w/w) nafarelin in either PEG 600 or propylene glycol were prepared as described above for leuprolide and placed in polymeric containers.
The containers were stored at 37° C. for one month in an incubator.
The samples were analyzed using RP-HPLC to determine the chemical stability of the aged formulations.

[4] = 40-45% (w/w) in vehicle PEG 600, one month at 37° C.
[5] = 40-45% (w/w) in vehicle PG/Acetate Buffer(30:70), one month at 37° C.
[6] = 15% (w/w) in vehicle PEG 600, one month at 37° C.
[7] = 15% (w/w) in vehicle PG, one month at 37° C.

**Q.** Which “effect of adding polar aprotic solvents such as DMSO on gelation of the formulation” value (shortened to “effect”) [1] does the source give for CC(C)C[C@H](NC(=O)[C@@H](COC(C)(C)C)NC(=O)[C@H](Cc1ccc(O)cc1)NC(=O)[C@H](CO)NC(=O)[C@H](Cc1c[nH]c2ccccc12)NC(=O)[C@H](Cc1cnc[nH]1)NC(=O)[C@@H]1CCC(=O)N1)C(=O)N[C@@H](CCCNC(=N)N)C(=O)N1CCC[C@H]1C(=O)NNC(N)=O [goserelin] here?
**A.** prevents gelation

**Q.** And the “% PURITY” value [2, 4]?
**A.** 99.3%

**Q.** And the “% CONCENTRATION” value [2, 4]?
**A.** 23.6%

**Q.** And the “% PURITY” value [2, 5]?
**A.** 98.2%

**Q.** And the “% CONCENTRATION” value [2, 5]?
**A.** 49.7%

**Q.** Which “effect” value [1] does the source give for CCNC(=O)[C@@H]1CCCN1C(=O)[C@H](CCCNC(=N)N)NC(=O)[C@H](CC(C)C)NC(=O)[C@@H](CC(C)C)NC(=O)[C@H](Cc1ccc(O)cc1)NC(=O)[C@H](CO)NC(=O)[C@H](Cc1c[nH]c2ccccc12)NC(=O)[C@H](Cc1c[nH]cn1)NC(=O)[C@@H]1CCC(=O)N1 [leuprolide] here?
**A.** prevents gelation

**Q.** For CC(C)C[C@H](NC(=O)[C@@H](Cc1ccc2ccccc2c1)NC(=O)[C@H](Cc1ccc(O)cc1)NC(=O)[C@H](CO)NC(=O)[C@H](Cc1c[nH]c2ccccc12)NC(=O)[C@H](Cc1c[nH]cn1)NC(=O)[C@@H]1CCC(=O)N1)C(=O)N[C@@H](CCCNC(=N)N)C(=O)N1CCC[C@H]1C(=O)NCC(N)=O [nafarelin], which “% CONCENTRATION” value [3, 6] is on record?
**A.** 15.8%

**Q.** And the “% PURITY” value [3, 6]?
**A.** 99.4%

**Q.** And the “% CONCENTRATION” value [3, 7]?
**A.** 12.9%

**Q.** What about the “% PURITY” value [3, 7] of the same molecule?
**A.** 99.4%

**Q.** Which “effect” value [1] does the source give for calcitonin here?
**A.** prevents gelation
